Values after ≈ are worked out from the molar mass of the structure shown.
Legend:
Escherichia coli NIHJ = experiment: MIC by agar plate dilution method on nutrient agar medium; assay type: cell-based
[1] = test system: Micrococcus luteus ATCC9341; experiment: as above; assay type: cell-based
[2] = test system: Bacillus subtilis ATCC6633; experiment: as above; assay type: cell-based
Candida albicans KF1 = experiment: as above; assay type: cell-based
[3] = test system: Xanthomonas campestris pv. oryzae KB88; experiment: microbe, parasite or virus in culture; assay type: cell-based
Artemia salina = experiment: Anthropodicidal activity, movement of nauplius larvae observed under microscope in 96 well plate; assay type: in vivo
Method: (§1) Methanol solution of FKI-1083 substance of the present invention was added to a 96 well plate (Corning Inc., the U.S.). […] A test medium (lecithin 0.01%, sodium hydrogen carbonate 7.5 mM, potassium chloride 7.5 mM, calcium chloride dihydrate 7.5 mM, and magnesium sulfate heptahydrate 7.5 mM) 250 μl was added thereto and shaken for 15 minutes. Approximately 10 Caenorhabditis elegans cultured on the agar medium for nematode growth [a medium in which E. coli was cultured on a medium consisting of bactoagar (DIFCO Inc., the U.S.) 1.7%, bactopeptone (DIFCO Inc., the U.S.) 0.5%, yeast extract (DIFCO Inc., the U.S.) 1.0%, sodium chloride 0.3%, cholesterol 0.0005%, calcium chloride 0.007%, magnesium sulfate 0.03%, dipotassium hydrogen phosphate 0.34%, and potassium dihydrogen phosphate 0.11%] were added thereto. Separately, a buffer solution 50 μl containing several numbers of nauplius larvae of Artemia salina hatched in the buffer (Tris 0.24%, sodium chloride 2.57%, magnesium chloride 0.47%, potassium chloride 0.07%, sodium carbonate 0.02%, magnesium sulfate 0.64% and calcium chloride 0.11%, pH 7.1) was added. Conditions of these nematode and arthropod were observed under microscope. […] Consequently, FKI-1083 substance of the present invention is useful as anthelmintic and insecticide.

[4] = test system: Staphylococcus aureus ATCC6538p; experiment: MIC by agar plate dilution method on nutrient agar medium; assay type: cell-based
NADH-fumarate reductase = NADH-fumarate reductase inhibitory activity, Ascaris suum muscle mitochondria fraction, NADH absorption at 340 nm; assay type: biochemical; conditions: 37° C., pH 7.0, read-out: concentration showing 50% inhibition of NADH-fumarate reductase activity
Method: Ascaris suum muscle was homogenized in 120 mM sodium phosphate solution (pH 7.0) and centrifuged at 3000×g for 10 minutes to collect the supernatant solution. The solution was further centrifuged at 10000×g for 20 minutes to collect the precipitate. The precipitate was suspended in 120 mM sodium phosphate solution (pH 7.0) to prepare mitochondria fraction. 50% dimethyl sulfoxide solution of FKI-1083 substance 10 μl was added to 96 well microplate. 120 mM sodium phosphate solution (pH 7.0) 80 μl containing 0.35 mM NADH and 7.2 mM disodium fumarate was added thereto and preincubated at 37° C. for 5 minutes in the microplate reader ELX808 (Bio-Tek Industries Inc., the U.S.). Mitochondria fraction of Ascaris suum muscle 10 μl (0.3 mg protein) was added thereto, incubated at 37° C. for 10 minutes and measured absorption of NADH at 340 nm in every 15 seconds. A gradient of the decrease in absorption at 340 nm was assayed as NADH-fumarate reductase activity. […] Consequently, FKI-1083 substance can be expected as a composition for treatment or prevention of helminthiasis.

Mucor racemosus IF04581 = experiment: MIC by agar plate dilution method on nutrient agar medium; assay type: cell-based
[5] = test system: Saccharomyces cerevisiae KF26; experiment: as above; assay type: cell-based
Description: Minimum inhibitory concentration (MIC) of FKI-1083 substance of the present invention against various microorganisms on nutrient agar medium by agar plate dilution method is shown in Table 3.

[6] = test system: Aspergillus niger ATCC6275; experiment: as above; assay type: cell-based
Caenorhabditis elegans = experiment: Nematocidal activity, movement observed under microscope in 96 well plate; assay type: in vivo
Method: as §1

[7] = test system: Escherichia coli NIHJ JC-2 (IF012734); experiment: MIC by agar plate dilution method on nutrient agar medium; assay type: cell-based; conditions: NIHJJC2
[8] = test system: Mycobacterium smegmatis ATCC607; experiment: as above; assay type: cell-based; conditions: Mycolicibacterium smegmatis
[9] = test system: Pseudomonas aeruginosa IF03080; experiment: as above; assay type: cell-based

Work on `CCCCCCCC/C(C)=C/Cc1oc(OC)c(C)c(=O)c1C` [FKI-1083 substance] yielded an MIC (Escherichia coli NIHJ) greater than 100 µg/mL, an MIC [1] of 6.25 µg/mL (≈ 19.5 µM) and an MIC [2] of 6.25 µg/mL (≈ 19.5 µM). For the same molecule, the MIC (Candida albicans KF1) was greater than 100 µg/mL, the MIC [3] was greater than 100 µg/mL and the “concentration at which movement was inhibited” value (Artemia salina) was 2 µg/mL. The MIC [4] was 6.25 µg/mL (≈ 19.5 µM), the IC50 (NADH-fumarate reductase) was 4.1 nM and the MIC (Mucor racemosus IF04581) was greater than 100 µg/mL. The MIC [5] was greater than 100 µg/mL, the MIC [6] was greater than 100 µg/mL and the “concentration at which movement was inhibited” value (Caenorhabditis elegans) was 20 µg/mL. For the same molecule, the MIC [7] was greater than 100 µg/mL, the MIC [8] was 12.5 µg/mL (≈ 39 µM) and the MIC [9] was greater than 100 µg/mL.
